Measurements as given in the supplement of paper PMC10307832.

Columns and labels:
Test in all cases: relative viability (nuclei count vs DMSO), 5 days (fraction); higher = more cells survive
VE-821 + Pemetrexed = compound: CS(=O)(=O)c1ccc(-c2cnc(N)c(C(=O)Nc3ccccc3)n2)cc1 [VE-821] + Nc1nc2[nH]cc(CCc3ccc(C(=O)N[C@@H](CCC(=O)O)C(=O)O)cc3)c2c(=O)[nH]1 [Pemetrexed] (partner 0.2 µM)
Outline: (§1)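 Cells from lung cancer lines were seeded into 1536-well plates and, one day later, dosed by pin tool. Treatments were either a single drug or a fixed dose of an anchor drug with five library-drug doses (not always all listed) in √10 steps. After 5 days, nuclei were stained in a one-step fixation (final 0.05% Triton X-100, 1% formaldehyde, 1 ug/ml Hoechst) and counted on 4× images, and relative viability is the treated-to-vehicle nuclei ratio, as the median of duplicate plates.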

VE-821 + Vorinostat = compound: CS(=O)(=O)c1ccc(-c2cnc(N)c(C(=O)Nc3ccccc3)n2)cc1 [VE-821] + O=C(CCCCCCC(=O)Nc1ccccc1)NO [Vorinostat] (partner 1 µM)
Outline: as §1

Ruxolitinib + Tozasertib = compound: N#CC[C@H](C1CCCC1)n1cc(-c2ncnc3[nH]ccc23)cn1 [Ruxolitinib] + Cc1cc(Nc2cc(N3CCN(C)CC3)nc(Sc3ccc(NC(=O)C4CC4)cc3)n2)n[nH]1 [Tozasertib] (partner 0.1 µM)
Outline: as §1

Ruxolitinib + Olaparib = compound: N#CC[C@H](C1CCCC1)n1cc(-c2ncnc3[nH]ccc23)cn1 [Ruxolitinib] + O=C(c1cc(Cc2n[nH]c(=O)c3ccccc23)ccc1F)N1CCN(C(=O)C2CC2)CC1 [Olaparib] (partner 8 µM)
Outline: as §1

Cell Line | relative viability (VE-821 + Pemetrexed; first compound 0.08 µM) | relative viability (VE-821 + Pemetrexed; first compound 0.253 µM) | relative viability (VE-821 + Pemetrexed; first compound 0.8 µM) | relative viability (VE-821 + Pemetrexed; first compound 2.53 µM) | relative viability (VE-821 + Pemetrexed; first compound 8 µM) | relative viability (VE-821 + Vorinostat; first compound 0.08 µM) | relative viability (VE-821 + Vorinostat; first compound 0.253 µM) | relative viability (VE-821 + Vorinostat; first compound 0.8 µM) | relative viability (VE-821 + Vorinostat; first compound 2.53 µM) | relative viability (VE-821 + Vorinostat; first compound 8 µM) | relative viability (Ruxolitinib + Tozasertib; first compound 0.08 µM) | relative viability (Ruxolitinib + Tozasertib; first compound 0.253 µM) | relative viability (Ruxolitinib + Tozasertib; first compound 0.8 µM) | relative viability (Ruxolitinib + Tozasertib; first compound 2.53 µM) | relative viability (Ruxolitinib + Tozasertib; first compound 8 µM) | relative viability (Ruxolitinib + Olaparib; first compound 0.08 µM) | relative viability (Ruxolitinib + Olaparib; first compound 0.253 µM) | relative viability (Ruxolitinib + Olaparib; first compound 0.8 µM) | relative viability (Ruxolitinib + Olaparib; first compound 2.53 µM) | relative viability (Ruxolitinib + Olaparib; first compound 8 µM)
NCI-H1915 | 0.499 | 0.432 | 0.344 | 0.311 | 0.23 | 0.623 | 0.509 | 0.451 | 0.536 | 0.457 | 0.462 | 0.434 | 0.464 | 0.398 | 0.419 | 0.249 | 0.255 | 0.265 | 0.208 | 0.236
NCI-H2085 | 0.936 | 0.848 | 0.61 |  | 0.612 | 0.935 | 0.754 | 0.609 |  | 0.511 | 0.882 | 0.765 | 0.886 | 0.77 | 0.688 | 0.781 | 0.804 | 0.755 | 0.64 | 0.588
NCI-H2228 | 0.333 | 0.373 | 0.301 | 0.253 | 0.156 | 0.758 | 0.535 | 0.294 | 0.59 | 0.347 | 0.32 | 0.33 | 0.257 | 0.314 | 0.208 | 0.58 | 0.847 | 0.576 | 0.614 | 0.592
EKVX | 0.422 | 0.373 | 0.419 | 0.341 | 0.227 | 0.961 | 0.665 | 0.707 | 0.81 | 0.452 | 0.392 | 0.439 | 0.463 | 0.282 | 0.443 |  | 0.837 | 0.947 | 0.731 | 0.759
COR-L23 | 0.198 | 0.211 | 0.196 | 0.197 | 0.16 | 0.418 | 0.561 | 0.36 | 0.373 | 0.157 | 0.204 | 0.217 | 0.204 | 0.192 | 0.146 | 0.369 | 0.371 | 0.376 | 0.329 | 0.272
SK-MES-1 | 0.98 | 0.934 | 0.838 | 0.612 | 0.352 | 1.18 | 1.02 | 0.857 | 1.08 | 0.358 | 1.01 | 0.873 | 0.906 | 0.768 | 0.735 | 0.766 | 0.639 | 0.713 | 0.563 | 0.597
A549 |  |  |  |  |  |  |  |  |  |  |  |  |  |  |  | 0.226 | 0.36 | 0.35 | 0.331 | 0.0796
NCI-H650 | 0.934 | 0.846 | 1.02 | 0.9 | 0.835 | 0.443 | 0.403 | 0.395 | 0.471 | 0.409 |  | 0.834 | 0.788 | 0.554 | 0.603 | 0.379 | 0.436 | 0.392 | 0.384 | 0.314
NCI-H2087 | 0.667 | 0.634 | 0.65 | 0.679 | 0.67 | 0.667 | 0.666 | 0.838 | 0.79 | 0.675 | 0.256 | 0.229 | 0.24 | 0.276 | 0.299 | 0.433 |  | 0.454 | 0.631 | 0.579
EBC-1 |  |  |  |  |  |  |  |  |  |  |  |  |  |  |  | 0.718 | 0.726 | 0.77 | 0.708 | 0.533
